Data taken from patent US10150755B2, “ASK1 inhibitor compounds and uses thereof” (Seal Rock Therapeutics, Inc., priority 2017, dated 2018).

How the values were obtained:
ASK1 = ASK1 (Homo sapiens (Human), UniProt Q99683); test: ASK1 Kinase Assay (Promega ASK1 Kinase Enzyme System, ADP-Glo); type: biochemical; details: enzyme 50 nM, ATP 10 μM
Protocol: The ASK1 enzymatic assay was run following Promega ASK1 Kinase Enzyme System (Cat #V3881). The kit provides the protocol, enzymes and all reagents necessary to run an assay. Firstly, the compounds, enzyme, substrate and ATP were diluted in provided assay buffer. The final concentration of the enzyme was 50 nM, substrate (Myelin basic protein) 1 μg/ml and ATP 10 μM. The compound and the enzyme were pre-incubated in a 384 well white solid bottom plate (Greiner, Cat#784075) for 10 minutes. After incubation, the substrate and ATP were added and incubated for further 60 minutes. After 60 minutes, ADP-Glo™ was added and plate was incubated for another 40 minutes. After 40 minutes, Kinase Detection Reagent was added and the plate was incubated for 45 minutes. After 45 minutes, plate was read on Perkin Elmer EnVision using luminescence read (0.5 seconds/well).

[1] = system: LPS-induced TNFalpha in Human PBMCs; test: Inhibition of LPS-induced TNFalpha in Human PBMCs; type: cell-based; details: PBMC, 100 ng/ml LPS, 6 hr, read-out: TNFa Inhibition IC50
Protocol: Cryopreserved human PBMCs were obtained from AllCells (cat# PB003F). After thawing/dilution protocols using RPMI medium supplemented with 5% FBS (heat inactivated), 100 ul/well of 1×10^6 cells/ml were plated into 96 well tissue culture plates (Corning). Cells were then pre-incubated for 1 hr at 37° C. in humidified 5% CO2 and 95% air with test compounds diluted in DMSO (final DMSO concentration 0.3%). Each compound was tested at 10 concentrations in duplicate wells. After the pre-incubation, 100 ng/ml LPS (E. Coli; Sigma) in RPMI media with 5% FBS was added for a 6 hr incubation at 37° C. in humidified 5% CO2 and 95% air. Controls on each plate included cells and LPS only, cells and media only (no LPS), and media only. After the 6 hr incubation, plates were centrifuged and the supernatants transferred to a new plate and frozen for subsequent TNFalpha analysis. Human TNFalpha was analyzed by ELISA according to the manufacturer's instructions (BD Sciences, BD OptEIA™ Cat#550610) and analyzed on a SpectraMax M series (Molecular Devices) microplate reader at OD 450 nm. IC50s were calculated using XLFit4 curve fitting software (IDBS) and a 4-parameter one-site sigmoid dose response fit.

Chain of ASK1 (Q99683 649-946 limits assumed): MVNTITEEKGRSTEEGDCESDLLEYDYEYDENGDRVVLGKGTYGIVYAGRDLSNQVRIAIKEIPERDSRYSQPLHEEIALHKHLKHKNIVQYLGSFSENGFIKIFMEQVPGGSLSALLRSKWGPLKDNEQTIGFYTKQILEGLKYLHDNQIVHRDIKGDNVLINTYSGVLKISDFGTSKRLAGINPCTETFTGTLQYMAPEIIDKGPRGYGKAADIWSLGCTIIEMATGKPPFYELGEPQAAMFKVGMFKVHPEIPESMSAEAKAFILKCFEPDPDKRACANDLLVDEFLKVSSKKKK

Row | SMILES | IC50 (ASK1) [µM] | IC50 [1] [µM]
1 | CN(C)C(=O)c1ccc2c(c1)CN(c1cccc(-c3nncn3C3CC3)n1)C2=O [Compound 2, 2-(6-(4-Cyclopropyl-4H-1,2,4-triazol-3-yl)pyridin-2-yl)-N,N-dimethyl-1-oxoisoindoline-5-carboxamide] | < 0.2 | 2 to 10
2 | O=C(c1ccc2c(c1)CN(c1cccc(-c3nncn3C3CC3)n1)C2=O)N1CCOCC1 [Compound 7, 2-(6-(4-cyclopropyl-4H-1,2,4-triazol-3-yl)pyridin-2-yl)-5-(morpholine-4-carbonyl)isoindolin-1-one] | < 0.2 | > 0.01
3 | CN1CCN(C(=O)c2ccc3c(c2)CN(c2cccc(-c4nncn4C4CC4)n2)C3=O)CC1 [Compound 10, 2-(6-(4-cyclopropyl-4H-1,2,4-triazol-3-yl)pyridin-2-yl)-5-(4-methylpiperazine-1-carbonyl)isoindolin-1-one] | < 0.2 | 2 to 10
4 | O=C1c2cc(-c3cccnc3)ccc2CN1c1cccc(-c2nncn2C2CC2)n1 [Compound 40, 2-(6-(4-cyclopropyl-4H-1,2,4-triazol-3-yl)pyridin-2-yl)-6-(pyridin-3-yl)isoindolin-1-one] |  | < 2
5 | Cc1ccncc1-c1ccc2c(c1)C(=O)N(c1cccc(-c3nncn3C3CC3)n1)C2 [Compound 41, 2-(6-(4-cyclopropyl-4H-1,2,4-triazol-3-yl)pyridin-2-yl)-6-(4-methylpyridin-3-yl)isoindolin-1-one] |  | < 2
6 | O=C1c2cc(-c3ccc(C4CC4)nc3)ccc2CN1c1cccc(-c2nncn2C2CC2)n1 [Compound 46, 2-(6-(4-cyclopropyl-4H-1,2,4-triazol-3-yl)pyridin-2-yl)-6-(6-cyclopropylpyridin-3-yl)isoindolin-1-one] |  | < 2
7 | O=C1c2cc(-c3cncc(F)c3)ccc2CN1c1cccc(-c2nncn2C2CC2)n1 [Compound 55, 2-(6-(4-cyclopropyl-4H-1,2,4-triazol-3-yl)pyridin-2-yl)-6-(5-fluoropyridin-3-yl)isoindolin-1-one] | 0.2 to 1 | 
8 | O=C1c2cc(-c3cnc(C4CC4)nc3)ccc2CN1c1cccc(-c2nncn2C2CC2)n1 [Compound 56, 2-(6-(4-cyclopropyl-4H-1,2,4-triazol-3-yl)pyridin-2-yl)-6-(2-cyclopropylpyrimidin-5-yl)isoindolin-1-one] | < 0.2 | 
9 | Cn1ccnc1-c1ccc2c(c1)C(=O)N(c1cccc(-c3nncn3C3CC3)n1)C2 [Compound 57, 2-(6-(4-cyclopropyl-4H-1,2,4-triazol-3-yl)pyridin-2-yl)-6-(1-methyl-1H-imidazol-2-yl)isoindolin-1-one] | < 0.2 | 
10 | O=C1c2cc(-c3ccccn3)ccc2CN1c1cccc(-c2nncn2C2CC2)n1 [Compound 58, 2-(6-(4-cyclopropyl-4H-1,2,4-triazol-3-yl)pyridin-2-yl)-6-(pyridin-2-yl)isoindolin-1-one] | < 0.2 | 
11 | O=C1c2cc(-c3cccnn3)ccc2CN1c1cccc(-c2nncn2C2CC2)n1 [Compound 59, 2-(6-(4-cyclopropyl-4H-1,2,4-triazol-3-yl)pyridin-2-yl)-6-(pyridazin-3-yl)isoindolin-1-one] | < 0.2 | 
12 | O=C1c2cc(-c3cnc(C4CC4)cn3)ccc2CN1c1cccc(-c2nncn2C2CC2)n1 [Compound 60, 2-(6-(4-cyclopropyl-4H-1,2,4-triazol-3-yl)pyridin-2-yl)-6-(5-cyclopropylpyrazin-2-yll)isoindolin-1-one] |  | > 0.01
13 | O=C1c2cc(-c3ccc(C4CC4)nn3)ccc2CN1c1cccc(-c2nncn2C2CC2)n1 [Compound 61, 2-(6-(4-cyclopropyl-4H-1,2,4-triazol-3-yl)pyridin-2-yl)-6-(6-cyclopropylpyridazin-3-yl)isoindolin-1-one] | < 0.2 | 
14 | O=C1c2cc(-n3cc(C4CC4)nn3)ccc2CN1c1cccc(-c2nncn2C2CC2)n1 [Compound 62, 6-(4-cyclopropyl-1H-1,2,3-triazol-1-yl)-2-(6-(4-cyclopropyl-4H-1,2,4-triazol-3-yl)pyridin-2-yl)isoindolin-1-one] | < 0.2 | 
15 | O=C1c2cc(-c3cccnc3)c(F)cc2CN1c1cccc(-c2nncn2C2CC2)n1 [Compound 63, 2-(6-(4-cyclopropyl-4H-1,2,4-triazol-3-yl)pyridin-2-yl)-5-fluoro-6-(pyridin-3-yl)isoindolin-1-one] | < 0.2 | 
16 | O=C1c2cc(-c3cccnc3)c(Cl)cc2CN1c1cccc(-c2nncn2C2CC2)n1 [Compound 65, 5-chloro-2-(6-(4-cyclopropyl-4H-1,2,4-triazol-3-yl)pyridin-2-yl)-6-(pyridin-3-yl)isoindolin-1-one] | < 0.2 | 

Row | SMILES | IC50 (ASK1) [µM] | IC50 [1] [µM]
17 | COc1cc2c(cc1-c1cccnc1)C(=O)N(c1cccc(-c3nncn3C3CC3)n1)C2 [Compound 66, 2-(6-(4-cyclopropyl-4H-1,2,4-triazol-3-yl)pyridin-2-yl)-5-methoxy-6-(pyridin-3-yl)isoindolin-1-one] |  | < 2
18 | CN(C)c1cc2c(cc1-c1cccnc1)C(=O)N(c1cccc(-c3nncn3C3CC3)n1)C2 [Compound 67, 2-(6-(4-cyclopropyl-4H-1,2,4-triazol-3-yl)pyridin-2-yl)-5-(dimethylamino)-6-(pyridin-3-yl)isoindolin-1-one] | < 0.2 | 
19 | COC(=O)c1ccc2c(c1)C(=O)N(c1cccc(-c3nncn3C3CC3)n1)C2 [Compound 72, methyl 2-(6-(4-cyclopropyl-4H-1,2,4-triazol-3-yl)pyridin-2-yl)-3-oxoisoindoline-5-carboxylate] | < 0.2 | 
20 | O=C(O)c1ccc2c(c1)C(=O)N(c1cccc(-c3nncn3C3CC3)n1)C2 [Compound 73, 2-(6-(4-cyclopropyl-4H-1,2,4-triazol-3-yl)pyridin-2-yl)-3-oxoisoindoline-5-carboxylic acid] | < 0.2 | 
21 | CN(C)C(=O)c1ccc2c(c1)C(=O)N(c1cccc(-c3nncn3C3CC3)n1)C2 [Compound 74, 2-(6-(4-cyclopropyl-4H-1,2,4-triazol-3-yl)pyridin-2-yl)-N,N-dimethyl-3-oxoisoindoline-5-carboxamide] | 0.2 to 1 | 
22 | O=C1c2ccccc2CN1c1cccc(-c2nnc3n2CCC3)n1 [Compound 76, 2-(6-(6,7-dihydro-5H-pyrrolo[2,1-c][1,2,4]triazol-3-yl)pyridin-2-yl)isoindolin-1-one] | 0.2 to 1 | 
23 | O=C1c2ccccc2CN1c1cccc(-c2nnc3n2CCCC3)n1 [Compound 77, 2-(6-(5,6,7,8-Tetrahydro-[1,2,4]triazolo[4,3-a]pyridin-3-yl)pyridin-2-yl)isoindolin-1-one] | 1 to 10 | 
24 | O=C1c2ccccc2CN1c1cccc(-c2nnc3n2[C@@H](CO)CC3)n1 [Compound 79, (R)-2-(6-(5-(hydroxymethyl)-6,7-dihydro-5H-pyrrolo[2,1-c][1,2,4]triazol-3-yl)pyridin-2-yl)isoindolin-1-one] | < 0.2 | 
25 | O=C1c2ccccc2CN1c1cccc(-c2nnc3n2[C@H](CO)CC3)n1 [Compound 81, (S)-2-(6-(5-(Hydroxymethyl)-6,7-dihydro-5H-pyrrolo[2,1-c][1,2,4]triazol-3-yl)pyridin-2-yl)isoindolin-1-one] | 1 to 10 | 
26 | O=C1c2ccccc2CN1c1cccc(-n2nncc2C2CC2)n1 [Compound 83, 2-(6-(5-cyclopropyl-1H-1,2,3-triazol-1-yl)pyridin-2-yl)isoindolin-1-one] | < 0.2 | 
27 | O=C1c2ccccc2CN1c1cccc(-n2ccnn2)n1 [Compound 84, 2-(6-(1H-1,2,3-triazol-1-yl)pyridin-2-yl)isoindolin-1-one] | 0.2 to 1 | 
28 | CC(C)n1cnnc1-c1cccc(N2Cc3ccc(-c4cccnc4)cc3C2=O)n1 [Compound 85, 2-(6-(4-isopropyl-4H-1,2,4-triazol-3-yl)pyridin-2-yl)-6-(pyridin-3-yl)isoindolin-1-one] | < 0.2 | 
29 | O=C1c2ccccc2CN1c1nccc(-c2nncn2C2CC2)n1 [Compound 86, 2-(4-(4-cyclopropyl-4H-1,2,4-triazol-3-yl)pyrimidin-2-yl)isoindolin-1-one] | 1 to 10 | 
30 | O=c1c2ccccc2[nH]n1-c1cccc(-c2nncn2C2CC2)n1 [Compound 87, 2-(6-(4-cyclopropyl-4H-1,2,4-triazol-3-yl)pyridin-2-yl)-1,2-dihydro-3H-indazol-3-one] | 1 to 10 | 
31 | Cn1c2ccccc2c(=O)n1-c1cccc(-c2nncn2C2CC2)n1 [Compound 88, 2-(6-(4-cyclopropyl-4H-1,2,4-triazol-3-yl)pyridin-2-yl)-1-methyl-1,2-dihydro-3H-indazol-3-one] | 1 to 10 | 
32 | O=c1c2ccccc2sn1-c1cccc(-c2nncn2C2CC2)n1 [Compound 89, 2-(6-(4-cyclopropyl-4H-1,2,4-triazol-3-yl)pyridin-2-yl)benzo[d]isothiazol-3(2H)-one] | 1 to 10 | 
